Measured values reported in US20250345459A1, “COMPOUND OR SALT THEREOF, LIPID COMPOSITION, PHARMACEUTICAL COMPOSITION, AND DELIVERY CARRIER” (FUJIFILM Corporation, priority 2023, published 2025).

What was measured:
[1] = Particle size of EPO mRNA-encapsulating lipid nanoparticles; type: physicochemical; settings: LNP with neutral lipid DSPC; mixed solution PBS; Lipid/Nucleic acid (wt/wt) 20
Description: (§1) The compounds described in Table 1, the neutral lipid, cholesterol (product name: Cholesterol HP; NIPPON FINE CHEMICAL CO., LTD.), and 1,2-dimyristoyl-rac-glycero-3-(methylpolyoxyethylene 2000) (hereinafter, called DMG-PEG2000) (product name: SUNBRIGHT® GM-020; NOF corporation) were dissolved in ethanol at a molar ratio of ionized lipid:neutral lipid:cholesterol:DMG-PEG2000=50:10:38.5:1.5 mol % such that the total lipid concentration was 12.5 mmol/L, to obtain an oil phase.
(§2) As the neutral lipid, 1,2-distearoyl-sn-glycero-3-phosphocholine (product name: COATSOME® MC-8080; NOF corporation) (hereinafter, DSPC), or L-α-dioleoylphosphatidylethanolamine (hereinafter, DOPE) (product name: COATSOME® MC-8181; NOF corporation) was used.
(§3) EPO mRNA (product name: CleanCap EPO mRNA (5 moU); TriLink) was diluted with 50 mmol/L citrate buffer having a pH 4.0 such that the weight ratio of total lipid concentration to mRNA concentration is about 20:1 to 64:1, thereby obtaining a water phase. Then, the water phase and the oil phase were mixed together using NanoAssemblr (Precision NanoSystems) such that the volume ratio of water phase:oil phase was 3:1. The mixed solution was diluted 2-fold with any of phosphate buffered physiological saline (PBS), water, or a 20 mmol/L Tris buffer solution (pH 7.4) to obtain a dispersion liquid of mRNA lipid nanoparticles. The dispersion liquid was dialyzed with 20 mmol/L Tris buffer solution (pH 7.4) containing 8% sucrose using a dialysis cassette (Slide-A-Lyzer G2, MWCO: 10 kD, Thermo Fisher Scientific) to remove ethanol, thereby obtaining EPO mRNA-encapsulating lipid nanoparticles.
The particle size of the mRNA-encapsulating lipid nanoparticles was measured by 5-fold diluting the dispersion liquid of lipid nanoparticle with phosphate buffered physiological saline (PBS) using a particle size measurement device NanoSaqla (Otsuka Electronics Co., Ltd.).

EPO mRNA = test: mRNA encapsulation rate of mRNA lipid nanoparticles; type: physicochemical; settings: LNP with neutral lipid DSPC; mixed solution PBS; Lipid/Nucleic acid (wt/wt) 20
Description: as §1, §2, §3
EPO mRNA was diluted with MilliQ water to prepare a diluted sample in 2-fold dilution series from 100 µg/mL to […], and a calibration curve solution was prepared. 50 μL of the calibration curve solution or the mRNA lipid nanoparticles was mixed with 450 μL of methanol to prepare a measurement solution.
The absorbance of each measurement solution at 260 nm and 330 nm was measured using a UV plate reader (Multiskan Go, Thermo Fisher Scientific), the absorbance at 330 nm was subtracted from the absorbance at 260 nm, and the result was defined as the absorbance of each measurement solution. The total […] nucleic acid concentration was calculated from the calibration curve using the absorbance of each sample measurement solution.
The concentration of the outer water phase nucleic acid was quantified by a standard addition method using a QuanT-iT RiboGreen RNA Assay Kit (Thermo Fisher Scientific). First, a 20× TE buffer included in the above kit was diluted with water, thereby obtaining a 1×TE buffer. TE represents Tris/EDTA (ethylenediaminetetraacetic acid). EPO mRNA was diluted with a TE buffer such that the final concentration was 0 to 400 ng/mL to prepare a nucleic acid diluted series. 10 μL of mRNA lipid nanoparticles diluted 5-fold with TE buffer and 90 µL of a nucleic acid dilution series were mixed in a 96-well plate, 100 μL of a Ribogreen reagent diluted 200-fold with TE buffer was added to each well, and then fluorescence (excitation wavelength: 485 nm, fluorescence wavelength: 535 nm) was measured using a fluorescence plate reader (Infinite 200 Pro M nano+, TECAN). From the obtained results, the outer water phase nucleic acid concentration of each measurement solution was calculated according to the standard addition method.
By using the quantification results of the total mRNA concentration and the mRNA concentration in the outer water phase that were obtained through the above steps, the mRNA encapsulation rate of the mRNA lipid nanoparticles was calculated according to the following Equation. […]

ICR mice = test: EPO protein expression in mice after intravenous EPO mRNA lipid nanoparticles; type: in vivo; settings: mRNA 0.1 mg/kg, plasma 6 hours after administration, neutral lipid DSPC, Lipid/Nucleic acid (wt/wt) 20, Comparative Example 1 is 1
Description: as §1, §2, §3
The dispersion liquid of mRNA lipid nanoparticles prepared in above <Preparation of EPO mRNA-encapsulating lipid nanoparticles> was intravenously administered to ICR mice at a mRNA dosage of 0.1 mg/kg. 6 hours after the administration, blood was collected from the caudal vena cava, thereby obtaining plasma. The human EPO […] was quantified by using the obtained blood plasma and Erythropoietin (EPO) Human Elisa Kit (Abcam.plc). The quantitative value is described as a relative amount of EPO protein in a case where Comparative Example 1 is 1.

Row | SMILES | Particle size (nm) [1] | Nucleic acid encapsulation rate (%) (EPO mRNA) | Relative amount of EPO protein (to Comparative Example 1) (ICR mice)
1 | CCCCCCCCN(CCCCC(=O)OCC(CCCCCC)CCCCCC)C(=O)OCCN(CCCCN(CC)CC)CCOC(=O)N(CCCCCCCC)CCCCC(=O)OCC(CCCCCC)CCCCCC [Example 38, bis(2-hexyloctyl) 11-(4-(diethylamino)butyl)-6,16-dioctyl-7,15-dioxo-8,14-dioxa-6,11,16-triazahenicosanedioate] | 137 nm | 93% | 9.99
2 | CCCCCCCCN(CCCCC(=O)OCCCCCCC)C(=O)OCCN(CCOC(=O)N(CCCCCCCC)CCCCC(=O)OCC(CCCCCC)CCCCCC)CCN(CC)CC [Example 40, 1-Heptyl 21-(2-hexyloctyl) 11-(2-(diethylamino)ethyl)-6,16-dioctyl-7,15-dioxo-8,14-dioxa-6,11,16-triazahenicosanedioate] | 162 nm | 74% | 8.10
3 | CCCCCCCCOC(=O)CCCCN(CCCCCCCC)C(=O)OCCN(CCOC(=O)N(CCCCCCCC)CCCCC(=O)OCC(CCCCCC)CCCCCC)CCN(CC)CC [Example 42, 1-(2-Hexyloctyl) 21-octyl 11-(2-(diethylamino)ethyl)-6,16-dioctyl-7,15-dioxo-8,14-dioxa-6,11,16-triazahenicosanedioate] | 154 nm | 82% | 6.39
4 | CCCCCCCN(CCCCCC(=O)OCC(CCCCC)CCCCC)C(=O)OCCN(CCOC(=O)N(CCCCCCC)CCCCCC(=O)OCC(CCCCC)CCCCC)CCN(CC)CC [Example 45, Bis(2-pentylheptyl) 12-(2-(diethylamino)ethyl)-7,17-diheptyl-8,16-dioxo-9,15-dioxa-7,12,17-triazatricosanedioate] | 84 nm | 95% | 2.19
5 | CCCCCC(CCCCC)COC(=O)CCCCCN(CCCCC)C(=O)OCCN(CCOC(=O)N(CCCCC)CCCCCC(=O)OCC(CCCCC)CCCCC)CCN(CC)CC [Example 46, Bis(2-pentylheptyl) 12-(2-(diethylamino)ethyl)-8,16-dioxo-7,17-dipentyl-9,15-dioxa-7,12,17-triazatricosanedioate] | 104 nm | 93% | 1.54
6 | CCCCCCC(CCCCCC)COC(=O)CCCCCN(CCCC)C(=O)OCCN(CCOC(=O)N(CCCC)CCCCCC(=O)OCC(CCCCCC)CCCCCC)CCN(CC)CC [Example 47, Bis(2-hexyloctyl) 7,17-dibutyl-12-(2-(diethylamino)ethyl)-8,16-dioxo-9,15-dioxa-7,12,17-triazatricosanedioate] | 114 nm | 91% | 1.46
7 | CCCCCCCN(CCCCCC(=O)OCC(CCCCC)CCCCC)C(=O)OCCN(CCCN(CC)CC)CCOC(=O)N(CCCCCCC)CCCCCC(=O)OCC(CCCCC)CCCCC [Example 48, Bis(2-pentylheptyl) 12-(3-(diethylamino)propyl)-7,17-diheptyl-8,16-dioxo-9,15-dioxa-7,12,17-triazatricosanedioate] | 90 nm | 96% | 2.26
8 | CCCCCC(CCCCC)COC(=O)CCCCCN(CCCCC)C(=O)OCCN(CCCN(CC)CC)CCOC(=O)N(CCCCC)CCCCCC(=O)OCC(CCCCC)CCCCC [Example 49, bis(2-pentylheptyl) 12-(3-(diethylamino)propyl)-8,16-dioxo-7,17-dipentyl-9,15-dioxa-7,12,17-triazatricosanedioate] | 126 nm | 94% | 1.12
9 | CCCCCCCCN(CCCCCC(=O)OCC(CCCCC)CCCCC)C(=O)OCCN(CCOC(=O)N(CCCCCCCC)CCCCCC(=O)OCC(CCCCC)CCCCC)CCN(CC)CC [Example 50, bis(2-pentylheptyl) 12-(2-(diethylamino)ethyl)-7,17-dioctyl-8,16-dioxo-9,15-dioxa-7,12,17-triazatricosanedioate] | 82 nm | 96% | 1.55
10 | CCCCCCCCN(CCCCCC(=O)OCC(CCCCC)CCCCC)C(=O)OCCN(CCCN(CC)CC)CCOC(=O)N(CCCCCCCC)CCCCCC(=O)OCC(CCCCC)CCCCC [Example 51, Bis(2-pentylheptyl) 12-(3-(diethylamino)propyl)-7,17-dioctyl-8,16-dioxo-9,15-dioxa-7,12,17-triazatricosanedioate] | 93 nm | 94% | 2.88
